{
  "source": "patent US7816074B2",
  "about": "“α4 β2 δGABA-A receptors as a strategy for PMS and alcoholism” (priority 2003, dated 2010)",
  "key": {"[1]": {"tested_on": "GABAA receptors of acutely isolated CA1 hippocampal pyramidal cells", "settings": "ethanol 1-3 mM, but not higher (>10 mM); after progesterone withdrawal (ref. 67); cited from earlier work"}, "female Long Evans rats": {"tested_on": "female Long Evans rats", "test": "Acoustic startle response (ASR)", "assay_type": "in vivo, rat", "settings": "for decrease of peak ASR: diestrous and sham controls", "description": "Animals were tested in a stabilimeter device (SR-Lab Startle Response System, San Diego Instruments, Inc., San Diego, Calif.) that permits vertical movement of a Plexiglas platform contained within a lit, well-ventilated sound-attenuating chamber (26). The amplitude of movement is detected by a piezoelectric device with a voltage output proportional to platform displacement. The analog output of the accelerometer is then amplified and digitized before computer analysis. Five minutes after i.p. administration of 10% ethanol (0.05-1.6 g/kg) or saline vehicle (1.5 ml volume) or 25 minutes after 4,5,6,7-tetrahydroisoxazolo[5,4-c]pyridin-3-ol injection (3 mg/kg, i.p.), animals were placed in the chamber for a 5 minutes acclimation period. […] Four acoustic stimuli (116 dB, 40 ms duration) were then presented at random intervals once every 10-15 seconds via a white-noise generator through speakers positioned on either side of the cage. […] For each acoustic stimulus, the amplitude and integrated response (amplitude and duration) were determined and normalized to the weight of the animal. Values for the integrated response after administration of each dose of ethanol or 4,5,6,7-tetrahydroisoxazolo[5,4-c]pyridin-3-ol were averaged and expressed as a fraction of the saline control average for the indicated treatment (progesterone withdrawal versus control) group in order to minimize variability between groups. […] It is also routinely used to assess behavioral excitability after withdrawal from BDZs and ethanol (73).\nAnimals were tested in a stabilimeter device (SR-Lab Startle Response System, San Diego Instruments, Inc.) that permitted vertical movement of a Plexiglas cage contained within a lit, well-ventilated, sound-attenuating chamber. The amplitude of movement was detected by a piezoelectric device with a voltage output proportional to cage displacement. The analog output of the accelerometer was amplified and digitized before computer analysis (15). Five minutes following intraperitoneal administration of alcohol (0.2 or 0.4 g/kg) or saline vehicle (1.5 ml volume), animals were placed in the chamber for 5 a minute acclimation period. Five acoustic stimuli (116 dB, 40 msec duration) were then presented once every 10-15 seconds via a white-noise generator through speakers positioned on either side of the cage. For each acoustic stimulus, the integrated response (amplitude and duration) was averaged across a 100 msec post-stimulus time period and the response latency determined. Both values were normalized to the weight of the animal. Values for the integrated response for the first noise stimulus following administration of each dose of alcohol were averaged and expressed as a fraction of the saline control average for the indicated treatment (P Wd versus control) group. […] It is routinely used to assess behavioral excitability following withdrawal from benzodiazepiness (48) and alcohol (73), and is known to be modified by GABA modulators, such as diazepam (11), and by local infusion of excitatory compounds into dorsal hippocampus (85)."}, "α4β2δ GABAA receptors": {"molecular_target": "T1, α4β2δ GABAA receptors (UniProt O14764+P63138+Q9D6F4)", "T1 construct": "expressed in transfected cells", "T1 sequence (Q9D6F4 36-552)": "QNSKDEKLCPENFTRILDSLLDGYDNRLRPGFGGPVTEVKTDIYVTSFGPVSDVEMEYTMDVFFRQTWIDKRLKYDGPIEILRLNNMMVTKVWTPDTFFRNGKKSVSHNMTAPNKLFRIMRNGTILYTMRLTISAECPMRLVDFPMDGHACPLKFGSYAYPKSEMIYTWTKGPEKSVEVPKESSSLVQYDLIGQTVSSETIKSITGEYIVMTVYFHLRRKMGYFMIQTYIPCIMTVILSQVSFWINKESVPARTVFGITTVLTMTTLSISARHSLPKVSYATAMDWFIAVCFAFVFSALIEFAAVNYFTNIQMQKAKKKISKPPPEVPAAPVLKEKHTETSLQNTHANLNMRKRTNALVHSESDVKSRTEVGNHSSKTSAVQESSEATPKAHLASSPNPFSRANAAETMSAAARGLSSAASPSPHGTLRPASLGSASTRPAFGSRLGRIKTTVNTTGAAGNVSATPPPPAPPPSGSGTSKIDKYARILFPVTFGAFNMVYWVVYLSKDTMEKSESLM", "T1 sequence (P63138 25-474 limits assumed)": "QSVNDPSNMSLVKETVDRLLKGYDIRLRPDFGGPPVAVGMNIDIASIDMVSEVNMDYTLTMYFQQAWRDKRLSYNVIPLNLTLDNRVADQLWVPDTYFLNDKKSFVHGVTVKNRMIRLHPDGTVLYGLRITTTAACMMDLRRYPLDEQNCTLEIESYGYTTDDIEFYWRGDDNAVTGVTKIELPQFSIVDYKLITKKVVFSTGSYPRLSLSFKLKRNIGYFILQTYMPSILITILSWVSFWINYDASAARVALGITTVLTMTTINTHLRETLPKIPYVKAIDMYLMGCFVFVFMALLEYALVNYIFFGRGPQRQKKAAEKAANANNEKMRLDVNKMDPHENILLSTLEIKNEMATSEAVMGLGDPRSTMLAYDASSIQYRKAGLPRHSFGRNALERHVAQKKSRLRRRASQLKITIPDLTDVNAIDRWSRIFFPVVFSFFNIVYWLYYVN", "T1 sequence (O14764 17-452 limits assumed)": "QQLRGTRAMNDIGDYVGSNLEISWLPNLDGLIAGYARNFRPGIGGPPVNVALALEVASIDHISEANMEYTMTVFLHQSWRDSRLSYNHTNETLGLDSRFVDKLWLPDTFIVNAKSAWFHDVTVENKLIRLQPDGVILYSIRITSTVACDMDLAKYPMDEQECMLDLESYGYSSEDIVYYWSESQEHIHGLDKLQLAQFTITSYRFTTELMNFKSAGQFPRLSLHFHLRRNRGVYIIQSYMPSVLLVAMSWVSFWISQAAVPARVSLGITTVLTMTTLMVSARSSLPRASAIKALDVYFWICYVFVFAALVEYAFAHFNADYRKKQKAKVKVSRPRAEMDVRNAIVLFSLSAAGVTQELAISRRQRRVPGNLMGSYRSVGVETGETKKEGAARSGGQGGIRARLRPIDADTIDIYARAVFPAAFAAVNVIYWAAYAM", "settings": "oocytes (ref. 67), cited from earlier work"}, "GABAR α4 subunit": {"tested_on": "GABAR α4 subunit", "test": "Western blot of α4 subunit in hippocampus after steroid and ethanol administration", "assay_type": "in vivo, rat", "description": "Animals were administered steroids using one of two protocols: (i) For the 48 hour steroid administration protocol, animals were injected with 10 mg/kg 3α, 5β THP in oil, i.p., on a daily basis for three days and sacrificed 1-2 hour following the final injection. Controls were injected with oil vehicle. […] At this time, the capsule was removed and the animals were injected with 17 β estradiol (2 μgs/animal) in order to reset their cycle. Animals were sacrificed 24 hours later. […] In all cases, implantation and removal of capsules were performed under halothane anesthesia. […] Therefore, this study employed the 5β isomer of the steroid.\nIn some groups of animals, either ethanol (0.5 g/kg in saline) or saline vehicle was administered i.p. (3×, every 40 minutes) for the final 2 hours of the respective steroid administration or withdrawal paradigm. The use of multiple injections of low doses of ethanol would approximate ethanol consumption in the human more closely than would a single injection. For the 48 hour steroid administration paradigm, animals received their first ethanol injection immediately after the steroid injection, and subsequent injections at 40 minute intervals. In all cases, animals were sacrificed 40 minutes after the final ethanol injection (2 hours after the first ethanol injection and final steroid injection). All animal protocols were carried out with the approval of the Institutional Animal Care and Use Committee.\nHippocampi removed from steroid or vehicle-treated animals were homogenized, and membranes prepared as previously described (65). Following electrophoresis on 8% SDS polyacrylamide gels, membranes were transferred to a nitrocellulose membrane (Bio-Rad, Hercules, Calif.). α4 subunit levels were detected by evaluating the band density at 67 kDa after probing with a polyclonal antibody (64). Membranes were incubated for 1-2 hours at room temperature with a 1:5000 dilution of horseradish peroxidase-conjugated donkey anti-rabbit IgG (Amersham, Arlington Heights, Ill.), and visualized with enhanced chemiluminescence with varying concentrations of protein in the linear range. Immunoreactive band densities were quantified using a CCD camera (UMAX Scanner) and one-Dscan software, which uses multiple Gaussian fits to achieve accurate band density profiles."}},
  "note": "Read-outs that look alike come from different tables or passages of the source.",
  "data": [
    {"smiles": "CCO", "note": "[ethanol]", "values": [
      {"measurement": "effect on GABA-gated current of isolated hippocampal neurons", "setting": "[1]", "result": "potentiated"},
      {"measurement": "effect on acoustic startle response", "setting": "female Long Evans rats; alcohol 0.2-0.4 g/kg in vivo, after progesterone withdrawal (Example III)", "result": "decreased the acoustic startle response"},
      {"measurement": "effect on ASR", "setting": "female Long Evans rats; ethanol 0.05 g/kg i.p., P withdrawal and diestrous control animals", "result": "equally ineffective"},
      {"measurement": "attenuation of average peak and integrated startle responses", "setting": "female Long Evans rats; ethanol 0.2-0.4 g/kg i.p., after P withdrawal", "result": "about 70%"},
      {"measurement": "attenuation of startle responses", "setting": "female Long Evans rats; ethanol 0.2-0.4 g/kg i.p., diestrous and sham control animals", "result": "not observed"},
      {"measurement": "decrease of peak ASR", "setting": "female Long Evans rats; ethanol 0.2 g/kg", "result": "ineffective"},
      {"measurement": "effect on ASR", "setting": "female Long Evans rats; ethanol 0.8-1.2 g/kg i.p., P withdrawn animals", "result": "ineffective"},
      {"measurement": "effect on ASR", "setting": "female Long Evans rats; ethanol 0.8-1.2 g/kg i.p., both control groups", "result": "significantly decreased"},
      {"measurement": "decrease of peak ASR", "setting": "female Long Evans rats; ethanol 0.8 g/kg", "result": "effective"},
      {"measurement": "effect on ASR", "setting": "female Long Evans rats; ethanol 1.6 g/kg i.p., P withdrawal and diestrous control animals", "result": "decreased the ASR"},
      {"measurement": "effect on α4β2δ GABAA receptor", "setting": "α4β2δ GABAA receptors; ethanol 1-3 mM", "result": "potentiated"},
      {"measurement": "effect on α4β2δ GABAA receptor", "setting": "α4β2δ GABAA receptors; ethanol >10 mM", "result": "ineffective"},
      {"measurement": "α4 expression", "setting": "GABAR α4 subunit; 2 hour ethanol administration after progesterone withdrawal", "result": "unchanged from control levels"},
      {"measurement": "α4 expression in hippocampus", "setting": "GABAR α4 subunit; ethanol 0.5 g/kg i.p. across final 2 hours of 48 h 3α,5β-THP administration", "result": "reversed the increase"},
      {"measurement": "α4 levels", "setting": "GABAR α4 subunit; ethanol administered without steroid", "result": "no significant effect"}
    ]}
  ]
}
